Two molecules from article PMC5692573 (Proceedings of the National Academy of Sciences of the …, 2017) can be followed below.

One may read the stoichiometry N as the number of molecules, sites or subunits per partner or assembly.

One assay addresses Kif18A (Homo sapiens, UniProt Q8NI77). The assay is described as follows: cryo-EM reconstruction. It is filed as binding.
In assay [1] the target is αβ-tubulin heterodimer (in paclitaxel-stabilized microtubules, or as curved tubulin in rings). The assay is described as follows: cryo-EM 2D class averages.

With `Nc1ncnc2c1ncn2[C@@H]1O[C@H](CO[P@](=O)(O)O[P@](=O)(O)NP(=O)(O)O)[C@@H](O)[C@H]1O` [AMPPNP], the “cryo-EM reconstruction (~6 Å) of MT-bound Kif18A_MDNL with AMPPNP” value at Kif18A is reported as “In the presence of AMPPNP, the nucleotide-binding site is clearly occupied by the bound nucleotide”.

B1: Kif18A_MDNL, monomeric human Kif18A motor-neck linker construct (domain or fragment)
chain: MSVTEEDLCHHMKVVVRVRPENTKEKAAGFHKVVHVVDKHILVFDPKQEEVSFFHGKKTTNQNVIKKQNKDLKFVFDAVFDETSTQSEVFEHTTKPILRSFLNGYNCTVLAYGATGAGKTHTMLGSADEPGVMYLTMLHLYKCMDEIKEEKICSTAVSYLEVYNEQIRDLLVNSGPLAVREDTQKGVVVHGLTLHQPKSSEEILHLLDNGNKNRTQHPTDMNATSSRSHAVFQIYLRQQDKTASINQNVRIAKMSLIDLAGSERASTSGAKGTRFVEGTNINRSLLALGNVINALADSKRKNQHIPYRNSKLTRLLKDSLGGNCQTIMIAAVSPSSVFYDDTYNTLKYANRAKDIKSSLKSNVLNVNNHITQYV
The molecule B1 showed a stoichiometry N in assay [1] of 1.
